Reference: ChEMBL document CHEMBL1142530, “Chalcogenopyrylium dyes as inhibitors/modulators of P-glycoprotein in multidrug-resistant cells” (Bioorg Med Chem, 2008)
pEC50, pIC50, pKi: −log10 of the molar value. The source made the active and inactive calls. No cut-off for these calls is given here.

Tests used:
[1] = Octanol-water partition coefficient, log P after 5 hrs by shake flask method; format: physicochemical
[2] = Inhibition of verapamil-induced ATPase activity in lipid activated mouse P-glycoprotein mdr3 cys-less mutant assessed as ATP hydrolysis per ug of protein
Mus musculus [3] = organism: Mus musculus; assay: Inhibition of verapamil-induced residual ATPase activity in lipid activated mouse P-glycoprotein mdr3 cys-less mutant assessed as ATP hydrolysis per ug of protein
Mus musculus [4] = organism: Mus musculus; assay: Inhibition of verapamil-induced specific ATPase activity in lipid activated mouse P-glycoprotein mdr3 cys-less mutant assessed as ATP hydrolysis per ug of protein at 100 uM
MDCK-II [5] = assay: Apparent permeability from basolateral to apical side of MDCK2 cells over expressing MDR1 at 5 uM after 1 hr; format: functional, cell-based; conditions: Canis lupus familiaris
MDCK-II [6] = assay: Apparent permeability from apical to basolateral side of MDCK2 cells over expressing MDR1 at 5 uM after 1 hr in presence of 25 uM LSN335984; format: functional, cell-based; conditions: Canis lupus familiaris
MDCK-II [7] = assay: Apparent permeability from basolateral to apical side of MDCK2 cells over expressing MDR1 at 5 uM after 1 hr in presence of 25 uM LSN335984; format: functional, cell-based; conditions: Canis lupus familiaris
MDCK-II [8] = assay: Enhancement of calcein-AM uptake in MDCK2 cells over expressing MDR1 after 20 mins; format: functional, cell-based; conditions: Canis lupus familiaris
Mus musculus [9] = organism: Mus musculus; assay: Inhibition of verapamil-induced ATPase activity in lipid activated mouse P-glycoprotein mdr3 cys-less mutant assessed as ATP hydrolysis at 100 uM
[10] = molecular target: T1, MDR1 (ABCB1, P-glycoprotein) (Homo sapiens, UniProt P08183); assay: Inhibition of MDR1 overexpressed in MDCK cells at 5 uM relative to LSN335984; format: cell-based; conditions: dog
T1 sequence (P08183 whole entry): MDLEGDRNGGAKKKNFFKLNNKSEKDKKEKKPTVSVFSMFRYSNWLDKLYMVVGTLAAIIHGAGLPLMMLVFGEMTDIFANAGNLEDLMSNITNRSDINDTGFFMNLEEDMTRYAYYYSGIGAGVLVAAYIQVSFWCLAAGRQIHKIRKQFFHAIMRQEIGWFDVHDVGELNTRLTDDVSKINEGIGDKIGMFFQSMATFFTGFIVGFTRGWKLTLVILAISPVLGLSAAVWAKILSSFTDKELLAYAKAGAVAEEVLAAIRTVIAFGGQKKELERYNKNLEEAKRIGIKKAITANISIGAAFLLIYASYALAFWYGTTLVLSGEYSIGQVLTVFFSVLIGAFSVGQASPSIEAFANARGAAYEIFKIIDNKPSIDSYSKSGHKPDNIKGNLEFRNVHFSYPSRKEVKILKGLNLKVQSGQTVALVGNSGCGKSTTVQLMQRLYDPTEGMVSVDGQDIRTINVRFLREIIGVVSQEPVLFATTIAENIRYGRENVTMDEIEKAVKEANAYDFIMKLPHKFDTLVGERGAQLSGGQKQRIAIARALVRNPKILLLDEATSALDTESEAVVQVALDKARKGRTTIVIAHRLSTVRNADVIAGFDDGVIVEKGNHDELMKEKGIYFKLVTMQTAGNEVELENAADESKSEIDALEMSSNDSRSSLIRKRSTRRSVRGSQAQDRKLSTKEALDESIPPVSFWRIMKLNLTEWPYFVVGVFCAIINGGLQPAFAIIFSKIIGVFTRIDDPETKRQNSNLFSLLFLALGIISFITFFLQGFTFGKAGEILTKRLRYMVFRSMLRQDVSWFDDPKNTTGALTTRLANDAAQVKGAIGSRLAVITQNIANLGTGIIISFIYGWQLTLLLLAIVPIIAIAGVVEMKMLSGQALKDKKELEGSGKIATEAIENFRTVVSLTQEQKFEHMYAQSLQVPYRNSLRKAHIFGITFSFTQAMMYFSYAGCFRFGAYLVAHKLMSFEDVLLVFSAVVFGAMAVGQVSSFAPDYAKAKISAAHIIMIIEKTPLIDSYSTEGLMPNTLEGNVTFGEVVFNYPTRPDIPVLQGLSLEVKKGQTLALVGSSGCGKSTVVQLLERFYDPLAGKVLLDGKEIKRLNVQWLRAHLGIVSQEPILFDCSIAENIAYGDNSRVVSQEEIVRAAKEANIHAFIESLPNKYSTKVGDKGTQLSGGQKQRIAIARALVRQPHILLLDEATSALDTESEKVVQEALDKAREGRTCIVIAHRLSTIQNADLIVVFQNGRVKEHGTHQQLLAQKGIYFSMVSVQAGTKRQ

[11] = molecular target: T1, MDR1 (ABCB1, P-glycoprotein); assay: (§1) Inhibition of MDR1 overexpressed in MDCK cells at 25 uM relative to LSN335984; format: cell-based; conditions: dog, MDCK-MDR1
MDCK-II [12] = assay: Passive apparent permeability across MDCK2 cells over expressing MDR1 in presence of 25 uM LSN335984 after 1 hr; format: functional, cell-based; conditions: Canis lupus familiaris
MDCK-II [13] = assay: Apparent permeability from apical to basolateral side of MDCK2 cells over expressing MDR1 after 1 hr; format: functional, cell-based; conditions: Canis lupus familiaris
MDCK-II [14] = assay: Apparent permeability from basolateral to apical side of MDCK2 cells over expressing MDR1 after 1 hr; format: functional, cell-based; conditions: Canis lupus familiaris
MDCK-II [15] = assay: Efflux ratio of permeability from basolateral to apical side to apical to basolateral side in MDCK2 cells over expressing MDR1 to permeability from basolateral to apical side to apical to basolateral side in MDCK2 cells over expressing MDR1 in presence of 25 uM LSN335984; format: functional, Canis lupus familiaris
DNA = assay: Binding affinity to calf thymus DNA relative to control; format: nucleic-acid assay; conditions: Bos taurus
[16] = Binding affinity to P-glycoprotein in presence of Escherichia coli sham lipids
[17] = Inhibition of [3H]vinblastine transport in human PEAK stable cells over expressing MDR1 assessed as [3H]vinblastine accumulation after 2.5 mins; format: functional, cell-based
MDCK-II [18] = assay: Inhibition of [3H]vinblastine transport in MDCK2 cells over expressing MDR1 assessed as [3H]vinblastine accumulation after 2.5 mins; format: functional, cell-based; conditions: Canis lupus familiaris
[19] = (§2) Activity of verapamil-dependent ATPase in lipid activated mouse P-glycoprotein mdr3 cys-less mutant
Mus musculus [20] = organism: Mus musculus; assay: as §2
[21] = molecular target: ATP-dependent translocase ABCB1 (Homo sapiens, UniProt P08183); assay: as §1; format: cell-based; conditions: dog, mdck, 25 µM
Sequence of ATP-dependent translocase ABCB1 (P08183 whole entry): as above

Mus musculus [22] = organism: Mus musculus; assay: Activity of verapamil-dependent ATPase in lipid activated cys-less mouse mdr3 P-glycoprotein assessed per ug of protein

logP at 5 h [1]	pIC50 [2]	Activity (Mus musculus [3])	Activity (Mus musculus [4])	SMILES	permeability (MDCK-II [5])	permeability (MDCK-II [6])	permeability (MDCK-II [7])	pEC50 (MDCK-II [8])	inhibition at 5 µM [10]	inhibition at 25 µM [11]	Papp (MDCK-II [12])	permeability (MDCK-II [13])	permeability (MDCK-II [14])	Ratio (MDCK-II [15])	further results
2.1	4.15	0 nmol/min	0.3 nmol/min	Cc1cc(C)c(-c2cc(-c3ccc(N(C)C)cc3)[s+]c(-c3ccc(N(C)C)cc3)c2)c(C)c1											
0.1	6.00	1.3 nmol/min	0.74 nmol/min	CCc1cc(-c2ccc(N(C)C)cc2)cc(-c2ccc(N(C)C)cc2)[s+]1											
2.1	4.96	0.7 nmol/min		Nc1ccc(-c2cc(-c3ccc(N4CCOCC4)cc3)cc(-c3ccc(N4CCOCC4)cc3)[s+]2)cc1											
1.2	< 4.00	2.5 nmol/min	1.37 nmol/min	CCCc1cc(-c2ccc(N(C)C)cc2)cc(-c2ccc(N(C)C)cc2)[s+]1.[I-]	11%	8%	11%	5.01	15%	87%	2.2 ×10⁻⁶ cm/s	0.15 ×10⁻⁶ cm/s	37 ×10⁻⁶ cm/s	390	Activity (DNA): > 60; Kapp [16]: 2.2 ×10⁻⁶ M; Activity (Mus musculus [9]): inactive
2.1	4.52	1 nmol/min		c1ccc(-c2cc(-c3ccc(N4CCOCC4)cc3)cc(-c3ccc(N4CCOCC4)cc3)[s+]2)cc1											
1.5	6.06	1.4 nmol/min	0.7 nmol/min	CN(C)c1ccc(-c2cc(-c3ccc(N(C)C)cc3)[s+]c(C(C)(C)C)c2)cc1.[I-]	37%	44%	25%	5.15	25%	60%	0.34 ×10⁻⁶ cm/s	0.53 ×10⁻⁶ cm/s	34 ×10⁻⁶ cm/s	134	Activity (DNA): > 60; Kapp [16]: 4.7 ×10⁻⁷ M

Second part, the molecule before the results:

SMILES	logP at 5 h [1]	pIC50 [2]	Activity (Mus musculus [3])	Activity (Mus musculus [4])	permeability (MDCK-II [5])	permeability (MDCK-II [6])	permeability (MDCK-II [7])	pEC50 (MDCK-II [8])	inhibition at 5 µM [10]	inhibition at 25 µM [11]	Papp (MDCK-II [12])	permeability (MDCK-II [13])	permeability (MDCK-II [14])	Ratio (MDCK-II [15])	further results
Cc1cc(-c2ccc(N(C)C)cc2)[s+]c(-c2ccc(N(C)C)cc2)c1	1.2	5.24	0.9 nmol/min												
CN(C)c1ccc(-c2cc(-c3cccs3)cc(-c3ccc(N(C)C)cc3)[te+]2)cc1	2.2	5.10	0.9 nmol/min												
CN(C)c1ccc(-c2cc(-c3ccc(N)cc3)[se+]c(-c3ccc(N)cc3)c2)cc1.F[P-](F)(F)(F)(F)F	2.2	< 4.00	2.5 nmol/min		12%	14%	10%	4.60	6%	29%	0.28 ×10⁻⁶ cm/s	0.34 ×10⁻⁶ cm/s	4.5 ×10⁻⁶ cm/s	17	Activity (Mus musculus [9]): inactive
CN(C)c1ccc(-c2cc(-c3ccc(N)cc3)[s+]c(-c3ccc(N(C)C)cc3)c2)cc1.F[P-](F)(F)(F)(F)F	2.2	6.15	1.6 nmol/min	0.93 nmol/min	19%	16%	17%	4.46	2%	16%	3.2 ×10⁻⁶ cm/s	5.3 ×10⁻⁶ cm/s	4.2 ×10⁻⁶ cm/s	1.6	
CN(C)c1ccc(-c2cc(-c3ccc(N4CCOCC4)cc3)[se+]c(-c3ccc(N4CCOCC4)cc3)c2)cc1	2.3	4.26	0.4 nmol/min												
c1ccc(-c2cc(-c3ccc(N4CCOCC4)cc3)[s+]c(-c3ccc(N4CCOCC4)cc3)c2)cc1	1.3	5.51	1 nmol/min												
CN(C)c1ccc(-c2cc(-c3ccc(N(C)C)cc3)[se+]c(C(C)(C)C)c2)cc1.[I-]	1.6				26%	37%	23%	5.17	23%	67%	0.28 ×10⁻⁶ cm/s	0.23 ×10⁻⁶ cm/s	29 ×10⁻⁶ cm/s	161	
CN(C)c1ccc(-c2cc(-c3ccccc3)[se+]c(-c3ccc(N)cc3)c2)cc1.F[P-](F)(F)(F)(F)F	0.8				18%	18%	13%	4.70	5%	22%	0.28 ×10⁻⁶ cm/s	0.35 ×10⁻⁶ cm/s	12 ×10⁻⁶ cm/s	57	
Cc1cc(-c2ccc(N(C)C)cc2)cc(-c2ccc(N(C)C)cc2)[s+]1.[I-]	0.6	4.82	0.5 nmol/min	0.48 nmol/min	25%	24%	17%	4.80	13%	74%	0.42 ×10⁻⁶ cm/s	0.58 ×10⁻⁶ cm/s	5.1 ×10⁻⁶ cm/s	14	Activity (DNA): > 60; Kapp [16]: 4.5 ×10⁻⁶ M
Cc1cc(C)c(-c2cc(-c3ccc(N(C)C)cc3)[te+]c(-c3ccc(N(C)C)cc3)c2)c(C)c1.F[P-](F)(F)(F)(F)F	2.4	5.92	0.4 nmol/min	0.44 nmol/min	3%	7%	5%	5.27	32%		0.48 ×10⁻⁶ cm/s	0.85 ×10⁻⁶ cm/s	0.42 ×10⁻⁶ cm/s	1.4	pIC50 [17]: 5.37; pIC50 (MDCK-II [18]): 5.02; pKi [19]: 7.40; Km (Mus musculus [20]): 16 µM; inhibition (INH) [21]: 230%; Vmax (Mus musculus [22]): 2.67 nmol/min
CN(C)c1ccc(-c2cc(-c3ccccc3)[s+]c(-c3ccc(N)cc3)c2)cc1.F[P-](F)(F)(F)(F)F	0	5.28	0.9 nmol/min		24%	19%	20%	4.85	7%	14%	0.31 ×10⁻⁶ cm/s	0.37 ×10⁻⁶ cm/s	17 ×10⁻⁶ cm/s	70	
